# Key:
# [1] = molecular target: IL-2-Inducible T-Cell Kinase (ITK) (Homo sapiens (Human), UniProt Q08881); experiment: ITK enzyme assay (IL-2-inducible T-cell kinase activity); format: biochemical; details: geometric mean of count n
# Procedure, shortened: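 Full-length N-Flag/C-His human ITK, pre-incubated 30 min at RT with compound. Reaction in HEPES pH 7.5 buffer with MgCl2, glutathione, gelatin and Brij-35, started with BTK peptide substrate, 60 min at RT. EDTA stop, PT66/APC TR-FRET detection overnight; IC50 fitted by four-parameter logistic.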
# [2] = system: activated CD4+ human T-cells (IL-2); experiment: IL-2 inhibition in supernatants from activated CD4+ human T-cells (cisbio HTRF); format: cell-based; details: T-cell; CD3/CD28-activated CD4+ human T cells, ImmunoCult stimulation 20 to 24 hrs; geometric mean of count n
# Procedure, shortened: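 Primary human CD4+ T cells activated with CD3/CD28 for 3 days and expanded to 7-9 days total, plated at 30,000 cells/well. Cells preincubated 15 min with compound, then stimulated with ImmunoCult (1:50 final) for 20-24 h at 37° C. Supernatant IL-2 measured by HTRF (665/615 nm); IC50 from four-parameter logistic fit.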
# Chain of IL-2-Inducible T-Cell Kinase (ITK) (Q08881 whole entry): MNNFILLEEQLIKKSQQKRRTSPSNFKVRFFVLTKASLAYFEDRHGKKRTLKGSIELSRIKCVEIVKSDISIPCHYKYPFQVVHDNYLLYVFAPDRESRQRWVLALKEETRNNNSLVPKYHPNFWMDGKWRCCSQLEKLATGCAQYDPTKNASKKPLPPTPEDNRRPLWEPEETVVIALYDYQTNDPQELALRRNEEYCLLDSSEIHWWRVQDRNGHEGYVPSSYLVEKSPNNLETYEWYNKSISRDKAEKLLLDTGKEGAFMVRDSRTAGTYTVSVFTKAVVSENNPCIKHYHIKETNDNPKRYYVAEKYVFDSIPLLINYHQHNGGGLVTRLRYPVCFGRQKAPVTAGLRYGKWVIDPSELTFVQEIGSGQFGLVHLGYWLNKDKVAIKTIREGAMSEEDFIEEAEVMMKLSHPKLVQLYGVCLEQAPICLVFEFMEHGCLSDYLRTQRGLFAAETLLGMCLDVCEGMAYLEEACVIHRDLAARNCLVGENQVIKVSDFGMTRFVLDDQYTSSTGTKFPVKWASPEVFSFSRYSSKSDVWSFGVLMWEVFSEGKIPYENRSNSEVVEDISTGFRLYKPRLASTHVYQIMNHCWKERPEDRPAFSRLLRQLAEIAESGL
SMILES,IC50 [1],IC50 [2]
"CN(C(=O)C1(F)CCOCC1)c1cnc2[nH]c(-c3n[nH]c4c3CCC(C)(C)C4)nc2c1 [Example 98, N-(2-(6,6-Dimethyl-4,5,6,7-tetrahydro-1H-indazol-3-yl)-3H-imidazo[4,5-b]pyridin-6-yl)-4-fluoro-N-methyltetrahydro-2H-pyran-4-carboxamide]",122 nM,1310 nM
"C[C@@H](C(=O)N(CCO)c1cnc2[nH]c(-c3n[nH]c4c3C[C@@H]3C[C@]3(C)C4)nc2c1)N1CCOCC1 [Example 15, (S)-N-(2-Hydroxyethyl)-N-(2-((4aS,5aR)-5a-methyl-1,4,4a,5,5a,6-hexahydrocyclopropa[f]indazol-3-yl)-3H-imidazo[4,5-b]pyridin-6-yl)-2-morpholinopropanamide]",83 nM,1230 nM
"CC(C(=O)N(C)c1cnc2[nH]c(-c3n[nH]c4c3C[C@@H]3C[C@]3(C)C4)nc2c1)N1C2COCC1C2 (stereo partly drawn) [Example 119, 2-(3-Oxa-6-azabicyclo[3.1.1]heptan-6-yl)-N-methyl-N-(2-((4aS,5aR)-5a-methyl-1,4,4a,5,5a,6-hexahydrocyclopropa[f]indazol-3-yl)-3H-imidazo[4,5-b]pyridin-6-yl)propanamide]",470 nM,4210 nM
"CN(C(=O)CC(C)(C)C)c1cnc2[nH]c(-c3n[nH]c4c3CCC(C)(C)C4)nc2c1 [Example 91, N-(2-(6,6-Dimethyl-4,5,6,7-tetrahydro-1H-indazol-3-yl)-3H-imidazo[4,5-b]pyridin-6-yl)-N,3,3-trimethylbutanamide]",144 nM,384 nM
"CCN(C(=O)[C@H](C)N1CCOCC1)c1cnc2nc(-c3n[nH]c4c3C[C@@H]3C[C@]3(C)C4)[nH]c2c1 [Example 21, (S)-N-Ethyl-N-(2-((4aS,5aR)-5a-methyl-1,4,4a,5,5a,6-hexahydrocyclopropa[f]indazol-3-yl)-1H-imidazo[4,5-b]pyridin-6-yl)-2-morpholinopropanamide]",38 nM,193 nM
"CN(C(=O)CC1CCOCC1)c1cnc2nc(-c3n[nH]c4c3C[C@@H]3C[C@]3(C)C4)[nH]c2c1 [Example 52, N-Methyl-N-(2-((4aS,5aR)-5a-methyl-1,4,4a,5,5a,6-hexahydrocyclopropa[f]indazol-3-yl)-1H-imidazo[4,5-b]pyridin-6-yl)-2-(tetrahydro-2H-pyran-4-yl)acetamide]",51 nM,189 nM
"CN(C(=O)CC1CCCC1)c1cnc2nc(-c3n[nH]c4c3C[C@@H]3C[C@]3(C)C4)[nH]c2c1 [Example 45, 2-Cyclopentyl-N-methyl-N-(2-((4aS,5aR)-5a-methyl-1,4,4a,5,5a,6-hexahydrocyclopropa[f]indazol-3-yl)-1H-imidazo[4,5-b]pyridin-6-yl)acetamide]",25 nM,117 nM
"CN(C(=O)C1CCOCC1)c1cnc2nc(-c3n[nH]c4c3C[C@@H]3C[C@]3(C)C4)[nH]c2c1 [Example 46, N-Methyl-N-(2-((4aS,5aR)-5a-methyl-1,4,4a,5,5a,6-hexahydrocyclopropa[f]indazol-3-yl)-1H-imidazo[4,5-b]pyridin-6-yl)tetrahydro-2H-pyran-4-carboxamide]",123 nM,294 nM
"CC(C)C(=O)N(C)c1cnc2[nH]c(-c3n[nH]c4c3CCC(C)(C)C4)nc2c1 [Example 103, N-(2-(6,6-Dimethyl-4,5,6,7-tetrahydro-1H-indazol-3-yl)-3H-imidazo[4,5-b]pyridin-6-yl)-N-methylisobutyramide]",104 nM,392 nM
"COCCOc1nc2[nH]c(-c3n[nH]c4c3C[C@@H]3C[C@]3(C)C4)nc2cc1N(C)C(=O)[C@@H](C)N1CCOCC1 [Example 39, (R)-N-(5-(2-Methoxyethoxy)-2-((4aS,5aR)-5a-methyl-1,4,4a,5,5a,6-hexahydrocyclopropa[f]indazol-3-yl)-3H-imidazo[4,5-b]pyridin-6-yl)-N-methyl-2-morpholinopropanamide]",110 nM,461 nM
"CC[C@H](C)C(=O)N(C)c1cnc2[nH]c(-c3n[nH]c4c3CCC(C)(C)C4)nc2c1 [Example 92, (S)-N-(2-(6,6-Dimethyl-4,5,6,7-tetrahydro-1H-indazol-3-yl)-3H-imidazo[4,5-b]pyridin-6-yl)-N,2-dimethylbutanamide]",698 nM,> 10000 nM
"CN(C(=O)C1(C)CCC1)c1cnc2[nH]c(-c3n[nH]c4c3CCC(C)(C)C4)nc2c1 [Example 104, N-(2-(6,6-Dimethyl-4,5,6,7-tetrahydro-1H-indazol-3-yl)-3H-imidazo[4,5-b]pyridin-6-yl)-N,1-dimethylcyclobutane-1-carboxamide]",101 nM,517 nM
"CCC1(C(=O)N(C)c2cnc3[nH]c(-c4n[nH]c5c4CCC(C)(C)C5)nc3c2)CCOCC1 [Example 94, N-(2-(6,6-Dimethyl-4,5,6,7-tetrahydro-1H-indazol-3-yl)-3H-imidazo[4,5-b]pyridin-6-yl)-4-ethyl-N-methyltetrahydro-2H-pyran-4-carboxamide]",307 nM,3170 nM
"C[C@@H](C(=O)N(C)c1cnc2[nH]c(-c3n[nH]c4c3C[C@@H]3C[C@]3(C)C4)nc2c1)N1CCCOCC1 [Example 43, (S)-N-Methyl-N-(2-((4aS,5aR)-5a-methyl-1,4,4a,5,5a,6-hexahydrocyclopropa[f]indazol-3-yl)-3H-imidazo[4,5-b]pyridin-6-yl)-2-(1,4-oxazepan-4-yl)propenamide]",134 nM,351 nM
"CC(C)CC(=O)N(C)c1cnc2[nH]c(-c3n[nH]c4c3CCC(C)(C)C4)nc2c1 [Example 102, N-(2-(6,6-Dimethyl-4,5,6,7-tetrahydro-1H-indazol-3-yl)-3H-imidazo[4,5-b]pyridin-6-yl)-N,3-dimethylbutanamide]",269 nM,749 nM
"CN(C(=O)C(C)(C)CN1CCOCC1)c1cnc2nc(-c3n[nH]c4c3C[C@@H]3C[C@]3(C)C4)[nH]c2c1 [Example 53, N,2,2-Trimethyl-N-(2-((4aS,5aR)-5a-methyl-1,4,4a,5,5a,6-hexahydrocyclopropa[f]indazol-3-yl)-1H-imidazo[4,5-b]pyridin-6-yl)-3-morpholinopropanamide]",88 nM,304 nM
"CCC(C)(C)C(=O)N(C)c1cnc2nc(-c3n[nH]c4c3C[C@@H]3C[C@]3(C)C4)[nH]c2c1 [Example 88, N,2,2-Trimethyl-N-(2-((4aS,5aR)-5a-methyl-1,4,4a,5,5a,6-hexahydrocyclopropa[f]indazol-3-yl)-1H-imidazo[4,5-b]pyridin-6-yl)butanamide]",118 nM,808 nM

# Further compounds by falling IC50 [1], results first:
IC50 [1],IC50 [2],SMILES
143 nM,462 nM,"COc1nc2[nH]c(-c3n[nH]c4c3C[C@@H]3C[C@]3(C)C4)nc2cc1N(C)C(=O)CN1CCOCC1 [Example 35, N-(5-Methoxy-2-((4aS,5aR)-5a-methyl-1,4,4a,5,5a,6-hexahydrocyclopropa[f]indazol-3-yl)-3H-imidazo[4,5-b]pyridin-6-yl)-N-methyl-2-morpholinoacetamide]"
141 nM,402 nM,"CN(C(=O)C1(C)CCC(F)(F)CC1)c1cnc2nc(-c3n[nH]c4c3C[C@@H]3C[C@]3(C)C4)[nH]c2c1 [Example 62, 4,4-Difluoro-N,1-dimethyl-N-(2-((4aS,5aR)-5a-methyl-1,4,4a,5,5a,6-hexahydrocyclopropa[f]indazol-3-yl)-1H-imidazo[4,5-b]pyridin-6-yl)cyclohexane-1-carboxamide]"
123 nM,732 nM,"CN(C(=O)C1CCC1)c1cnc2[nH]c(-c3n[nH]c4c3CCC(C)(C)C4)nc2c1 [Example 105, N-(2-(6,6-Dimethyl-4,5,6,7-tetrahydro-1H-indazol-3-yl)-3H-imidazo[4,5-b]pyridin-6-yl)-N-methylcyclobutanecarboxamide]"
61 nM,481 nM,"Cc1nc2[nH]c(-c3n[nH]c4c3C[C@@H]3C[C@]3(C)C4)nc2cc1N(C)C(=O)[C@H](C)N1CCOCC1 [Example 34, (S)-N-Methyl-N-(5-methyl-2-((4aS,5aR)-5a-methyl-1,4,4a,5,5a,6-hexahydrocyclopropa[f]indazol-3-yl)-3H-imidazo[4,5-b]pyridin-6-yl)-2-morpholinopropanamide]"
57 nM,498 nM,"CN(C(=O)CC(C)(C)C)c1cnc2nc(-c3n[nH]c4c3C[C@@H]3C[C@]3(C)C4)[nH]c2c1 [Example 73, N,3,3-Trimethyl-N-(2-((4aS,5aR)-5a-methyl-1,4,4a,5,5a,6-hexahydrocyclopropa[f]indazol-3-yl)-1H-imidazo[4,5-b]pyridin-6-yl)butanamide]"
37 nM,108 nM,"CN(C(=O)C1CCCCC1)c1cnc2nc(-c3n[nH]c4c3C[C@@H]3C[C@]3(C)C4)[nH]c2c1 [Example 51, N-Methyl-N-(2-((4aS,5aR)-5a-methyl-1,4,4a,5,5a,6-hexahydrocyclopropa[f]indazol-3-yl)-1H-imidazo[4,5-b]pyridin-6-yl)cyclohexanecarboxamide]"
24 nM,147 nM,"CC(C(=O)N(C)c1cnc2[nH]c(-c3n[nH]c4c3C[C@@H]3C[C@]3(C)C4)nc2c1)C1CCOCC1 (stereo partly drawn) [Example 9, N-Methyl-N-(2-((4aS,5aR)-5a-methyl-1,4,4a,5,5a,6-hexahydrocyclopropa[f]indazol-3-yl)-3H-imidazo[4,5-b]pyridin-6-yl)-2-(tetrahydro-2H-pyran-4-yl)propanamide]"
20 nM,93 nM,"CN(C(=O)C1C[C@@H]2[C@H](C1)C2(F)F)c1cnc2nc(-c3n[nH]c4c3C[C@@H]3C[C@]3(C)C4)[nH]c2c1 (stereo partly drawn) [Example 55, (1R,5S)-6,6-Difluoro-N-methyl-N-(2-((4aS,5aR)-5a-methyl-1,4,4a,5,5a,6-hexahydrocyclopropa[f]indazol-3-yl)-1H-imidazo[4,5-b]pyridin-6-yl)bicyclo[3.1.0]hexane-3-carboxamide]"

# Source: US20240124439A1, “Pyrido[2,3-D]Imidazole Derivatives and Their Use As Inhibitors of ITK for the Treatment of Skin Disease” (Pfizer Inc., priority 2020, published 2024)
